Several values for one entry are separate records, joined by “and”; a condition that tells them apart may be missing. Identical values can stand only once.
Legend:
[1] = Log D, 1-octanol/buffer shake flask; format: physicochemical; details: 1-octanol/phosphate buffer, pH 7.4; read-out: LogD
Experimental: The Log D assay was a miniaturized 1-octanol/buffer shake flask method followed by LC/MS/MS analysis, as follows.
The test compounds or control compounds Nadolol, Chlorpromazine Hydrochloride and Propranolol Hydrochloride were dissolved in 100% DMSO to obtain 10 mM solutions, which were transferred to 96-well polypropylene cluster tubes; 2 μL/well. 1-octanol saturated with 0.1 M phosphate buffer (149 μL/well) and 0.1 M phosphate buffer saturated with 1-octanol (149 μL/well) were added to the tubes, respectively, and each tube was vigorously mixed for 2 minutes and then shaked at a speed of 800 rpm at room temperature for 1 hour, followed by centrifugation at 4000 rpm for 5 minutes at room temperature. Thereafter, for the test compounds and the Chlorpromazine Hydrochloride and Propranolol Hydrochloride, the sample of the buffer layer was diluted by a factor of 50-fold and the sample of 1-octanol layer was diluted by a factor of 2000-fold with internal standard (IS) solution. For Nadolol, the sample of the buffer layer was diluted by a factor of 1000-fold and the sample of 1-octanol layer was diluted by a factor of 400-fold with internal standard (IS) solution. The samples were analyzed using a triple quadrupole mass spectrometer. Peak areas were corrected by dilution factors and embedded internal standard, and the ratio of the corrected peak areas was used to calculate the Log D value. The Log D value for each compound will be calculated by the following equation: […]

hTRPV1 = biological target: T1, hTRPV1 (Homo sapiens, UniProt Q8NER1); experiment: hTRPV1 dual activity electrophysiology, CHO cells co-expressing hKv7.2/3 and hTRPV1; format: cell-based; details: Dual hTRPV1 / Dual Expressing CHO, CAP IC50, Kv7.2/3 co-expressed and activated, capsaicin
T1 construct: CDS of NM_080704.4, inserted into the multiple cloning site of pcDNA3.1(+); host or cells: CHO/hKv7.2/3
T1 sequence (Q8NER1 whole entry): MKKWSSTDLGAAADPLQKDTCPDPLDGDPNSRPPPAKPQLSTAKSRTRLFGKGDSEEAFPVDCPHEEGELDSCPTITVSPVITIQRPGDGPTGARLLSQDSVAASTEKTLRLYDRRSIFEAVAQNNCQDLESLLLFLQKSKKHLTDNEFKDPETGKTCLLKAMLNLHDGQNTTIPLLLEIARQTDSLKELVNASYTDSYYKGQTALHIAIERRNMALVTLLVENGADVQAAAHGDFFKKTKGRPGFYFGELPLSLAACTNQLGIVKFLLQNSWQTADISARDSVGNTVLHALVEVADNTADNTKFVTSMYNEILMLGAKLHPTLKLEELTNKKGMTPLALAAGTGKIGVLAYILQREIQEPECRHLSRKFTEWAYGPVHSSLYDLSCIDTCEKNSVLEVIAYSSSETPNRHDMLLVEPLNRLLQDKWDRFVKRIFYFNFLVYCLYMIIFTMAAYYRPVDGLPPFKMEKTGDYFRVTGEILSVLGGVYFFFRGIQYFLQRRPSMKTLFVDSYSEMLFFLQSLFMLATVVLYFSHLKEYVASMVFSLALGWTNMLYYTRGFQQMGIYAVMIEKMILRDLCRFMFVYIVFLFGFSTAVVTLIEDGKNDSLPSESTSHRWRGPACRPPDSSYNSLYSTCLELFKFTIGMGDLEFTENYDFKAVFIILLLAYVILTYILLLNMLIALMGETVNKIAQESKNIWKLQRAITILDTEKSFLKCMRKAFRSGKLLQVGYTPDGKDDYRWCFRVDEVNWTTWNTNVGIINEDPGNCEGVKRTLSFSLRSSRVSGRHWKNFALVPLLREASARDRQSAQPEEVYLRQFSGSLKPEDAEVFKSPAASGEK
Experimental: Cell culture and DNA transfection: CHO/hKv7.2/3 cells were transfected with hTRPV1 DNA constructs (CDS of NM_080704.4, inserted into the multiple cloning site of pcDNA3.1(+) between the Hind III and BamH I restriction site, Genscript). For CHO transfection, 1×10^6 cells were suspended in a reaction mix (Amaxa™ 4D-Nucleofector™-LONZA) containing 5 μg of hTRPV1 DNA and 0.5 μg of GFP DNA (for cells selection) in a cuvette.
The cells were transformed (Amaxa, DT-133 program for CHO transfection with p-3 Kit) and recovered for 10 minutes at RT in the hood. Then cells were re-suspended in a 10 mL antibiotic (Ab)-free medium suspension and were plated on Gelatin or PLL-coated cover glass in different cell densities. On the next morning, the medium was changed to full medium containing the CHO/hKv7.2/3 cell line selection antibiotics.
Extracellular (Bath) solution: The solution was composed of (in mM): NaCl, 140; KCl, 4; CaCl2, 1.8; MgCl2, 1.2; Glucose, 11; HEPES, 5.5. pH was adjusted to 7.3 with NaOH. Osmolarity was adjusted to 310 mOsm with Sucrose.
Intracellular (Pipette) solution: Pipettes were pulled from borosilicate glass (Warner Instrument Corp, USA) with a resistance of 3-7 MΩ and were filled with internal solution composed of (in mM): KCl, 130; MgCl2, 1; K ATP, 5; EGTA, 5; HEPES, 10. pH was adjusted to 7.3 with KOH. Osmolarity was adjusted to 290 mOsm with Sucrose.
A programmable valve-linked pressurized perfusion system was used for local application of compounds nearby the cell recorded in a consistent flow rate of 2-3 mL/minute. Series resistance was corrected and data were sampled at 5 kHz and low pass filtered at 2.4 kHz using MultiClamp 700B amplifier with pCLAMP11 software (Molecular Devices, USA).
At least 48 hours following cell transfection and plating, cells were recorded to assess the TRPV1 dual activity. Membrane potential was held at −90 mV. To measure the inhibitory effects of the tested compounds on hTRPV1 dual activity the following protocol was performed:
Cells were perfused with vehicle-only containing bath solution. After 30 seconds, a single −40 mV 1.5 second step was applied for Kv7.2/3 activation and 30 seconds later capsaicin (1 μM) was applied for 6 seconds to activate the TRPV1.
Cells perfusion was changed to a compound-containing bath solution, and after 2 minutes and 30 seconds of compound application, a single −40 mV 1.5 second step was applied for Kv7.2/3 activation and 30 seconds later capsaicin (1 μM) was applied for 6 seconds to activate the TRPV1.
Cells perfusion was thereafter changed back to vehicle only-containing bath solution. After 30 seconds, a single −40 mV 1.5 step was applied for Kv7.2/3 activation and 30 seconds later capsaicin (1 μM) was applied for 6 seconds to activate the TRPV1 followed by a capsaicin wash out.
The drug current response, when capsaicin was injected following 3 minutes of pre-incubation with the test compound, was divided by the averaged control currents, induced without compound, before compound incubation and following its washout, to evaluate the drug/control response.

[2] = Metabolite identification (Met-ID), human hepatocytes; format: in vitro ADME; details: human hepatocytes
Experimental: Cell culture and incubation: Cryopreserved hepatocyte cells, from human and rat sources, were purchased from commercial sources or in-house production, and were cultured in Williams' Medium E supplemented with glutamine and HEPES, in a humidified 5% CO2 incubator at 37° C., to a cell density of […]. Then, solutions of test compounds at a concentration of 10 μM, or 7-Ethoxycoumarin, as a positive control, at a concentration of 30 μM, in Eagle's Minimum Essential Medium, Catalog No. 30-2003 (ATCC) supplemented with 20% fetal bovine serum, were introduced and the mixture was incubated for 120 minutes, or other specified time points.
The samples were analyzed for metabolites using an LC-MS method developed on […] and PDA systems. Comparative analyses of mass spectra and ion fragmentation between the parent compound and its metabolites were carried out, and metabolic profiling was determined using the mass spectrometric and/or PDA (UV) response. Hypothetical structures of metabolites and their metabolic pathways were proposed.

[3] = Human liver microsome metabolic stability; format: in vitro ADME; details: for half-life at 1 µM: human, liver microsomes, human liver microsomes, read-out: HLM T1/2
Description: Liver microsomes which are subcellular particles derived from endoplasmic reticulum of hepatic cells were used for evaluating the tested compounds. These particles are rich in drug metabolizing enzymes, including the cytochrome p-450 family. Liver microsomes are a recommended test system for various in vitro drug metabolism and pharmacokinetics (DMPK) studies. CLint values lower than […] are considered suitable for drug development.
Liver Microsome Metabolic Stability Assay (NADPH): The liver microsome stability assay was evaluated through pre-incubation with HLMs. A liver microsome mixture (pooled from multiple donors) at a concentration of 0.5 mg/mL, and the test compound at a concentration of 1 μM, were warmed in the presence of a NADPH regenerating system (about 1.0 mM) at 37° C. Positive controls, including testosterone (a CYP3A4 substrate), propafenone (a CYP2D6 substrate), and diclofenac (a CYP2C9) substrate, were concurrently incubated with the HLMs, in the presence of the NADPH regenerating system (1.0 mM). Samples were extracted during incubation at multiple intervals: 0, 5, 15, 30, 45 and 60 minutes. To terminate the reactions, the samples were promptly mixed with cooled acetonitrile that included an internal standard (IS). An additional compound was incubated with the HLMs in the absence of the NADPH regeneration system, from which a sample was taken at the 60-minute interval.
The clearance of the test compound in the samples was subsequently analyzed by LC-MS/MS based on the peak area ratios of the analyte to the IS.
The following equation was used to calculate the microsome clearance: […]
Liver weight: 40 grams/kg, 30 grams/kg, 32 grams/kg, 20 grams/kg and 88 grams/kg, for rat, monkey, dog, human and mouse, respectively.

[4] = Bidirectional permeability in Caco-2 cells; format: in vitro ADME, human; details: human, Caco-2, pH 7.4, 2.00 μM
Experimental: Cell culture: Caco-2 cells (ATCC) were seeded onto polycarbonate (PC) membranes in 96-well insert plates. The cells were cultured in media for 21-28 days prior to performing the transport assays.
Validation of monolayer integrity: Once the Caco-2 cells formed a confluent monolayer, their integrity was evaluated using a Lucifer yellow rejection assay. The monolayer integrity was further evaluated by measuring, in duplicate wells, the unidirectional (A→B) permeability of nadolol (a low permeability marker) and metoprolol (a high permeability marker), as well as bidirectional permeability of digoxin (a P-glycoprotein substrate marker).
Assay: The compounds were assayed under bidirectional transport conditions (A→B and B→A) at a concentration of 2.00 μM (with DMSO≤1.0%), using a transport buffer composed of HBSS containing 10.0 mM HEPES, pH 7.40±0.05. The incubation was carried out at 37° C., with 5.0% CO2 and relatively saturated humidity for 2 hours.
The dosing solution was spiked and mixed with the transport buffer and a Stop Solution (containing an internal standard (IS)) to create a T0 sample.
Sample analysis: Following the incubation, all of the samples were analyzed using LC-MS/MS. The concentrations of the test compounds were expressed as peak area ratios of the analytes versus the IS.

[5] = test system: Spared Nerve Injury (SNI) rats; experiment: Spared Nerve Injury (SNI) model, von Frey; format: in vivo, rat; details: rat, in vivo
Experimental: All animal experiments were carried out according to the Guide for the Care and Use of Laboratory Animals (2011 edition) and approved by the Israel National Institutional Animal Care and Use Committee (IACUC). Young adult male SD rats (Envigo RMS, Israel), were used for in vivo efficacy: Spared Nerve Injury (SNI), Distal Tibial Injury (DTI) and Post-operative Pain (POP), 200-220 grams, Chronic Post-Ischemia Pain (CPIP) 275-325 grams, Monosodium iodoacetate-induced osteoarthritis (MIA-OA) 180-220 grams; for in vivo safety: 200-250 grams at study initiation. […] The health status of the animals used in this study was examined upon their arrival. Only animals in good health were acclimatized to laboratory conditions and were used in the studies. All studies were performed following at least five days of animal acclimation. During acclimation and throughout the entire study duration, animals were housed within a limited-access rodent facility and kept in groups with a maximum of 2-3 rats per polypropylene cage. The cages were fitted with solid bottoms and filled with sterile wood shavings as bedding material. Animals were provided ad libitum with a commercial, sterile rodent diet and had free access to drinking water that was supplied to each cage via polyethylene bottles with stainless steel sipper tubes. A feed lot analysis of the diet batch used in the study was included in the archives with the study data. Water was monitored periodically. Plastic cylinders for playing and hiding and wooden balls or sticks were added to the cages for environmental enrichment.
SNI: The SNI procedure consisted of ligating and dissecting the tibial and common peroneal nerves, thus sparing the sural nerve. Prior to surgery, a dose of 0.03 mg/kg buprenorphine (Temgesic®) was administered to animals as a prophylaxis to alleviate the operative and postoperative pain unrelated to neuropathy. Next, animals were anesthetized with a combination of medetomidine/ketamine sodium IP. While under anesthesia a medio caudal incision of 4-5 mm parallel to the left femur was cut on shaved and disinfected skin. The sciatic nerve was exposed from underneath the muscle layer and isolated gently from the surrounding connective tissue, using curved and blunt forceps. The tibial and common peroneal nerves were first tightly ligated with double knot of 6-0 silk suture, proximally and immediately distal to the sciatic bifurcation. Thereafter, the nerves which run as a pair as physically attached to each other were cut at sites close to the ligatures, thereby removing a length of approximately 0.5 mm of the nerves, necessary to avoid the formation of any re-connection to the nerves. This procedure led to complete denervation of areas of tibial and peroneal innervation in the plantar paw, while neuropathy was developed upon the sural territories. Special care was taken not to manipulate the sural nerve, which thus was left intact. The muscle layers and skin were sutured, and animals were allowed to recover. 0.03 mg/kg buprenorphine SC was administered on postoperative days 1-2, every 12 hours, starting from the evening of Day 0. Rehydration with 4 ml of sterile saline IP was provided directly after the surgery, continuing twice a day for 7 days. The sural nerve innervates the lateral longitudinal third of the plantar paw and therefore, mechanical sensitivity was assessed in this area.
The selection of animals was performed on day 13 post-operation before animals were placed in their experimental groups. Animals with a pain threshold of <4 grams for an operated leg following Von Frey testing were included in the study. To form homogenous treatment groups, all the selected animals were grouped using a random sampling method on study day 13, to form groups with similar pain threshold mean. For blinding purposes, the researcher who dosed the animals with test items was different than the researcher who conducted the VF tests. […]

CHO-K1 cells = experiment: In vitro micronucleus; format: cell-based; details: Plate 2 without S9, 3 hours
Experimental: (§1) The micronucleus assay was performed according to the regulatory guidelines. In brief, CHO-K1 cells were plated at 10000 cells/well in 3 plates and incubated In CHO-K1 growth medium (containing F12K, 10% FBS and 1% PS) overnight.
(§2) As a control for the S9 treatment, plate No. 1, cells were treated with cyclophosphamide as a positive control, for 3 hours. For plate No. 2, without S9 treatment, cells were treated with mitomycin C as a positive control, compounds for 3 hours, and for plate No. 3, without S9 treatment, cells were treated with bleomycin sulfate as a positive control continuously for 24 hours.
(§3) On the following day, 6 μg/mL of cytochalasin B were added to each well and plates were further incubated overnight. In the day after medium was replaced with a combined 10 μg/mL Hoechst dye solution and 0.5 μM calcein-AM in 100 μL warm DPBS for 30 minutes and the plates were scanned using CQ1 high-content analysis system.

In vitro micronucleus = format: cell-based; details: hamster, cho-k1 cells; Plate 2 without S9, 3 hours; read-out: Cytotoxicity (%) Absolute EC50
Experimental: as §1, §2, §3

Row | Compound | logD [1] | IC50 (hTRPV1) [nM] | Human Hepatocytes MetID (glutathione conjugation) [2] | HLM and/or Rat PK clearance rates compared to compound 661 [3] | half-life at 1 µM [3] [min] | efflux ratio at 2 h, 2 µM [4] | Reversal of PWT [5] | Micronucleus response Absolute MEC (CHO-K1 cells) [µM] | CC50 at 3 h (In vitro micronucleus) [nM]
1 | O=C(Cc1cc(-n2cc(Cl)c3cc(Cl)cc(Cl)c32)ncn1)N[C@@H]1COC[C@H]1O [Compound 840] | 3.63 | 479 | did not indicate the presence of glutathione conjugation and None | improved HLM and/or Rat PK clearance rates compared to compound 661 | 52 | 5.4 | – | – | –
2 | CC(C)C[C@H](CN)CC(=O)O [Pregabalin, reference compound] | – | – | – | – | – | – | 61% and 50% | – | –
3 | CO[C@@]12[C@H](COC(N)=O)C3=C(C(=O)C(C)=C(N)C3=O)N1C[C@@H]1N[C@@H]12 [Mitomycin C, reference compound] | – | – | – | – | – | – | – | >16 | > 16000
4 | O=C(Cc1cc(-n2cc(Cl)c3cc(Cl)cc(Cl)c32)cnn1)N[C@@H]1COC[C@H]1O [Compound 830] | 3.2 | – | did not indicate the presence of glutathione conjugation | improved HLM and/or Rat PK clearance rates compared to compound 661 | 58.1 | 84 | – | – | –
